According to ChEMBL document CHEMBL1150179, “The cytotoxic principles of Solanum incanum” (1990):
Values after ≈ are worked out from the molar mass of the structure shown.

Tests used:
[1] = Cytotoxicity against human PLC/PRF/5 cells by microassay; type: functional; details: read-out: ED50 (the source's name)
KB = assay: Cytotoxicity against human KB cells by microassay; type: functional; details: read-out: ED50 (the source's name)

SMILES	EC50 [1] [µg/mL]	EC50 (KB) [µg/mL]
C[C@H]1[C@H](C)CC[C@]2(C(=O)O)CC[C@]3(C)C(=CC[C@@H]4[C@@]5(C)CC[C@H](OC(=O)c6ccccc6)C(C)(C)[C@@H]5CC[C@]43C)[C@H]12	6.89 (≈ 12.3 µM)	–
C[C@@H]1CC[C@@]2(NC1)O[C@H]1C[C@H]3[C@@H]4CC=C5C[C@@H](O[C@@H]6O[C@H](CO)[C@@H](O[C@@H]7O[C@@H](C)[C@H](O)[C@@H](O)[C@H]7O)[C@H](O)[C@H]6O)CC[C@]5(C)[C@H]4CC[C@]3(C)[C@H]1[C@@H]2C [KHASIANINE]	8.6 (≈ 11.9 µM)	–
C[C@H]1[C@H](C)CC[C@]2(C(=O)O)CC[C@]3(C)C(=CC[C@@H]4[C@@]5(C)CC[C@H](OC(=O)/C=C/c6ccccc6)C(C)(C)[C@@H]5CC[C@]43C)[C@H]12	7.24 (≈ 12.3 µM)	–
CC[C@H](C[C@@H](O)[C@@H](C)[C@H]1CC[C@H]2C3=CC(=O)[C@H]4[C@H](C)[C@@H](OC(=O)c5ccccc5)CC[C@]4(C)[C@H]3CC[C@]12C)C(C)C [CARPESTEROL]	8.47 (≈ 15 µM)	–
CCCCCCCCCCCCCCCC(=O)O[C@H]1CC[C@]2(C)[C@H]3CC=C4[C@@H]5[C@@H](C)[C@H](C)CC[C@]5(C(=O)O)CC[C@@]4(C)[C@]3(C)CC[C@H]2C1(C)C	3.54 (≈ 5.09 µM)	–
CCC(=O)O[C@H]1CC[C@]2(C)[C@H]3CC=C4[C@@H]5[C@@H](C)[C@H](C)CC[C@]5(C(=O)O)CC[C@@]4(C)[C@]3(C)CC[C@H]2C1(C)C	2.54 (≈ 4.95 µM)	–
C[C@H]1[C@H](C)CC[C@]2(C(=O)O)CC[C@]3(C)C(=CC[C@@H]4[C@@]5(C)CC[C@H](O)C(C)(C)[C@@H]5CC[C@]43C)[C@H]12 [URSOLIC ACID]	3.89 (≈ 8.52 µM)	3.76 (≈ 8.23 µM)
C[C@@H]1CC[C@]2(NC1)O[C@H]1C[C@H]3[C@@H]4CC=C5C[C@@H](O)CC[C@]5(C)[C@H]4CC[C@]3(C)[C@H]1[C@@H]2C [SOLASODINE]	3.75 (≈ 9.07 µM)	3.74 (≈ 9.04 µM)
C[C@@H]1CC[C@@]2(NC1)O[C@H]1C[C@H]3[C@@H]4CC=C5C[C@@H](O[C@@H]6O[C@H](CO)[C@@H](O[C@@H]7O[C@@H](C)[C@H](O)[C@@H](O)[C@H]7O)[C@H](O)[C@H]6O[C@@H]6O[C@@H](C)[C@H](O)[C@@H](O)[C@H]6O)CC[C@]5(C)[C@H]4CC[C@]3(C)[C@H]1[C@@H]2C [SOLAMARGINE]	1.53 (≈ 1.76 µM)	–
C/C=C/C(=O)O[C@H]1CC[C@]2(C)[C@H]3CC=C4[C@@H]5[C@@H](C)[C@H](C)CC[C@]5(C(=O)O)CC[C@@]4(C)[C@]3(C)CC[C@H]2C1(C)C	2.59 (≈ 4.94 µM)	–
